Experimental data: PubChem BioAssay AID328 (DTP/NCI, 2004)
Where “and” joins values, the source holds several entries; their conditions need not be identical. Identical values can stand only once. Toxic doses and inconclusive results are not listed. The calls were made as follows: active = survival T/C of 150% or more; inactive = T/C below 125% in these data. Residues, ends and D or L forms follow the SMILES beside them.

System: BDF1 mice, P388 leukemia ip, median survival T/C
Experiment: NCI In Vivo Anticancer Drug Screen. Data for tumor model P388 Leukemia (intraperitoneal) in B6D2F1 (BDF1) mice
Settings: endpoint: median survival time, higher = longer survival
In short: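 Antitumour effect was judged in vivo: survival in drug-treated mice, normalised to that of vehicle-dosed controls, gives the reported T/C.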

[1] = dose: 12.5 mg/kg/injection, schedule: Q04DX003 (ip), vehicle: saline
[2] = dose: 100.0 mg/kg/injection, schedule: Q04DX003 (ip), vehicle: Klucel (hydroxypropylcellulose) (HPC)
[3] = dose: 200.0 mg/kg/injection, schedule: Q04DX003 (ip), vehicle: Klucel (hydroxypropylcellulose) (HPC)
[4] = dose: 400.0 mg/kg/injection, schedule: Q04DX003 (ip), vehicle: Klucel (hydroxypropylcellulose) (HPC)
[5] = dose: 50.0 mg/kg/injection, schedule: Q01DX009 (ip), vehicle: saline with Tween-80
[6] = dose: 100.0 mg/kg/injection, schedule: Q01DX009 (ip), vehicle: saline with Tween-80
[7] = dose: 100.0 mg/kg/injection, schedule: Q01DX001 (ip), vehicle: saline with Tween-80
[8] = dose: 100.0 mg/kg/injection, schedule: Q04DX003 (ip), vehicle: saline with Tween-80
[9] = dose: 200.0 mg/kg/injection, schedule: Q04DX003 (ip), vehicle: saline with Tween-80
[10] = dose: 400.0 mg/kg/injection, schedule: Q04DX003 (ip), vehicle: saline with Tween-80
[11] = dose: 100.0 mg/kg/injection, schedule: Q01DX010 (ip), vehicle: saline
[12] = dose: 100.0 mg/kg/injection, schedule: Q04DX003 (ip), vehicle: saline
[13] = dose: 200.0 mg/kg/injection, schedule: Q04DX003 (ip), vehicle: saline
[14] = dose: 400.0 mg/kg/injection, schedule: Q04DX003 (ip), vehicle: saline

Measured: T/C

COc1cc2cc3cc4cc(OC)c(OC)cc4c(C)[n+]3cc2cc1OC (tested in a mixture with another compound)
active: dose: 10.0 mg/kg/injection, schedule: Q01DX009 (ip), vehicle: Klucel (hydroxypropylcellulose) (HPC) 163 % of control | dose: 20.0 mg/kg/injection, schedule: Q01DX009 (ip), vehicle: Klucel (hydroxypropylcellulose) (HPC) 155 % of control | dose: 20.0 mg/kg/injection, schedule: Q01DX009 (ip), vehicle: saline 180 % of control | dose: 40.0 mg/kg/injection, schedule: Q01DX009 (ip), vehicle: Klucel (hydroxypropylcellulose) (HPC) 163 % of control | dose: 40.0 mg/kg/injection, schedule: Q01DX009 (ip), vehicle: saline 150 % of control | dose: 40.0 mg/kg/injection, schedule: Q04DX003 (ip), vehicle: saline 154 % of control and 166 % of control | dose: 80.0 mg/kg/injection, schedule: Q01DX009 (ip), vehicle: Klucel (hydroxypropylcellulose) (HPC) 163 % of control | dose: 80.0 mg/kg/injection, schedule: Q01DX009 (ip), vehicle: saline 180 % of control | dose: 80.0 mg/kg/injection, schedule: Q04DX003 (ip), vehicle: saline 157 % of control | dose: 120.0 mg/kg/injection, schedule: Q01DX009 (ip), vehicle: saline 150 % of control | dose: 160.0 mg/kg/injection, schedule: Q01DX009 (ip), vehicle: Klucel (hydroxypropylcellulose) (HPC) 154 % of control | dose: 160.0 mg/kg/injection, schedule: Q01DX009 (ip), vehicle: saline 200 % of control | dose: 160.0 mg/kg/injection, schedule: Q04DX003 (ip), vehicle: saline 154 % of control
inactive: dose: 168.0 mg/kg/injection, schedule: Q04DX003 (ip), vehicle: saline 99 % of control | dose: 250.0 mg/kg/injection, schedule: Q04DX003 (ip), vehicle: saline 92 % of control

ClC[P+](c1ccccc1)(c1ccccc1)c1ccccc1
inactive: dose: 3.0 mg/kg/injection, schedule: Q01DX009 (ip), vehicle: saline 120 % of control | dose: 6.0 mg/kg/injection, schedule: Q01DX009 (ip), vehicle: saline 116 % of control | [1] 100 % of control

COc1cccc(C(=O)O)c1OS(=O)(=O)c1ccccc1
inactive: dose: 100.0 mg/kg/injection, schedule: Q01DX009 (ip), vehicle: Klucel (hydroxypropylcellulose) (HPC) 104 % of control | [2] 110 % of control | dose: 200.0 mg/kg/injection, schedule: Q01DX009 (ip), vehicle: Klucel (hydroxypropylcellulose) (HPC) 95 % of control | [3] 90 % of control | dose: 400.0 mg/kg/injection, schedule: Q01DX009 (ip), vehicle: Klucel (hydroxypropylcellulose) (HPC) 90 % of control | [4] 105 % of control

CCOC(=O)C(OCC)P(=O)(OCC)OCC (configuration not stated)
inactive: dose: 25.0 mg/kg/injection, schedule: Q04DX003 (ip), vehicle: Klucel (hydroxypropylcellulose) (HPC) 93 % of control | dose: 50.0 mg/kg/injection, schedule: Q04DX003 (ip), vehicle: Klucel (hydroxypropylcellulose) (HPC) 97 % of control | [2] 91 % of control | [3] 90 % of control | [4] 93 % of control

CC(C)(C)NCCC(O)c1cc(C(F)(F)F)nc2c(C(F)(F)F)cccc12 (configuration not stated)
inactive: [5] 105 % of control | [6] 104 % of control

CC(C)NCc1ccccc1Sc1ccccc1
inactive: [7] 101 % of control

CCCCCCCCCCCCCCCc1ccc(C(=O)C[n+]2ccccc2)cc1
inactive: dose: 3.13 mg/kg/injection, schedule: Q01DX009 (ip), vehicle: saline with Tween-80 100 % of control | dose: 6.25 mg/kg/injection, schedule: Q01DX009 (ip), vehicle: saline with Tween-80 104 % of control | dose: 12.5 mg/kg/injection, schedule: Q01DX009 (ip), vehicle: saline with Tween-80 118 % of control | dose: 16.5 mg/kg/injection, schedule: Q04DX003 (ip), vehicle: saline with Tween-80 122 % of control

COC(=O)C(NC(=O)C(NC(=O)C(N)C(C)C)C(C)C)C(C)C (stereo not drawn) (H-Val-Val-Val-OMe; configuration not given here)
inactive: dose: 50.0 mg/kg/injection, schedule: Q01DX005 (ip), vehicle: saline 101 % of control | dose: 100.0 mg/kg/injection, schedule: Q01DX005 (ip), vehicle: saline 99 % of control | dose: 200.0 mg/kg/injection, schedule: Q01DX005 (ip), vehicle: saline 92 % of control

OC(OCCCCCCOC(O)C(Cl)(Cl)Cl)C(Cl)(Cl)Cl (configuration not stated)
inactive: [8] 95 % of control | [9] 95 % of control | [10] 90 % of control

C=CCNC(=O)NCC=C
active: [11] 161 % of control

CC(=O)OC1CC(OC2C(O)CC(OC3C(O)CC(OC4CCC5(C)C(CCC6C5CCC5(C)C(C7=CC(=O)OC7)CCC65O)C4)OC3C)OC2C)OC(C)C1OC1OC(CO)C(O)C(O)C1O (configuration not stated)
inactive: dose: 5.0 mg/kg/injection, schedule: Q01DX010 (ip), vehicle: carboxymethylcellulose (CMC) 90 % of control

CC1(C)OCC(=NNC(N)=O)CO1
inactive: [12] 98 % of control

CCc1ccccc1NC(=O)c1cccc(Cl)c1
inactive: [8] 95 % of control | [9] 100 % of control | [10] 104 % of control

O=c1ccc2cc(Cl)ccc2[nH]1
inactive: dose: 50.0 mg/kg/injection, schedule: Q01DX001 (ip), vehicle: saline with Tween-80 105 % of control | [7] 103 % of control

CCOC(=O)CCCC1(C)C(C#N)C(=O)NC(=O)C1C#N (configuration not stated)
inactive: [12] 104 % of control | [13] 100 % of control | [14] 118 % of control

CCCCCCCCCCCCCCCC[N+](C)(C)c1ccccc1
inactive: dose: 1.56 mg/kg/injection, schedule: Q04DX003 (ip), vehicle: saline with Tween-80 110 % of control | dose: 3.13 mg/kg/injection, schedule: Q04DX003 (ip), vehicle: saline with Tween-80 115 % of control | dose: 25.0 mg/kg/injection, schedule: Q04DX003 (ip), vehicle: saline with Tween-80 108 % of control

O=S(=O)(O)CCN1CCN(CCO)CC1
inactive: [12] 91 % of control | [13] 108 % of control | [14] 95 % of control

C/C(=C\c1ccc(N(C)C)cc1C)[N+](=O)[O-]
inactive: [5] 116 % of control and 118 % of control | [6] 114 % of control and 124 % of control | dose: 200.0 mg/kg/injection, schedule: Q01DX009 (ip), vehicle: saline with Tween-80 122 % of control

N=C(N)c1cn(C2OC(CO)C(O)C2O)c2ncnc(N)c12 (configuration not stated)
inactive: dose: 0.44 mg/kg/injection, schedule: Q04DX003 (ip), vehicle: saline 102 % of control | dose: 0.66 mg/kg/injection, schedule: Q04DX003 (ip), vehicle: saline 109 % of control | dose: 1.0 mg/kg/injection, schedule: Q04DX003 (ip), vehicle: saline 100 % of control | dose: 8.0 mg/kg/injection, schedule: Q01DX009 (ip), vehicle: Klucel (hydroxypropylcellulose) (HPC) 90 % of control and 105 % of control | dose: 12.5 mg/kg/injection, schedule: Q01DX009 (ip), vehicle: saline 86 % of control
active: dose: 0.44 mg/kg/injection, schedule: Q01DX009 (ip), vehicle: saline 156 % of control | dose: 0.66 mg/kg/injection, schedule: Q01DX009 (ip), vehicle: saline 164 % of control | dose: 1.0 mg/kg/injection, schedule: Q01DX009 (ip), vehicle: Klucel (hydroxypropylcellulose) (HPC) 160 % of control | dose: 1.0 mg/kg/injection, schedule: Q01DX009 (ip), vehicle: saline 162 % of control | dose: 1.5 mg/kg/injection, schedule: Q01DX009 (ip), vehicle: saline 173 % of control | dose: 3.13 mg/kg/injection, schedule: Q01DX009 (ip), vehicle: saline 202 % of control | dose: 6.25 mg/kg/injection, schedule: Q04DX003 (ip), vehicle: saline 154 % of control | [1] 177 % of control | dose: 16.5 mg/kg/injection, schedule: Q04DX003 (ip), vehicle: saline 159 % of control and 181 % of control | dose: 25.0 mg/kg/injection, schedule: Q04DX003 (ip), vehicle: saline 181 % of control and 190 % of control | dose: 37.5 mg/kg/injection, schedule: Q04DX003 (ip), vehicle: saline 181 % of control

OCC(O)C(O)C(O)CO (configuration not stated)
inactive: [11] 100 % of control | dose: 400.0 mg/kg/injection, schedule: Q01DX010 (ip), vehicle: saline 100 % of control

COC(=O)c1cc(=O)nc(NN=C(C)C)s1
inactive: dose: 50.0 mg/kg/injection, schedule: Q01DX005 (ip), vehicle: saline with Tween-80 91 % of control | dose: 100.0 mg/kg/injection, schedule: Q01DX005 (ip), vehicle: saline with Tween-80 100 % of control
